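The compound was tested at five concentrations on cells cultured in 96-well plates, with a 48-hour exposure period. GI50 = concentration required for 50% inhibition of growth.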 Activity calls are given as the source filed them. Rule as the data show it: active = GI50 up to about 1.1 µM and inactive = higher.

The values that follow come from ChEMBL document CHEMBL1201862, “PubChem BioAssay data set” (2004).

Some test systems named below: UO-31; OVCAR-3; SNB-19; SK-MEL-28; A549; K562; EKVX; SK-MEL-2; TK-10; HOP-62; CAKI-1; SK-MEL-5; HL-60; SR; HCT-116.
What all share (experiment): growth of human tumour cells (NCI), 48 h

Take `O=C(O)c1ccccc1C1c2ccc(Cl)cc2Oc2cc(Cl)ccc21`: the GI50 with UO-31, with OVCAR-3, in the assay with SNB-19, in the assay on SK-MEL-28, with A549 and with K562 was > 100 µM (inactive) in each case. Besides, the GI50 in the assay with EKVX, in the assay with SK-MEL-2, with TK-10, in the assay with HOP-62, with CAKI-1 and with SK-MEL-5 was > 100 µM (inactive) each time. In addition, the GI50 in the assay with HL-60 was > 100 µM (inactive).
`CC1=C2C3OC(=O)C(C)C3C(O)C[C@@]2(C)C(=O)CC1` (some centres not stated): the GI50 in the assay with UO-31, in the assay on OVCAR-3, in the assay on SNB-19, in the assay on SK-MEL-28, in the assay on A549 and in the assay on EKVX was > 100 µM (inactive) throughout. Besides, the GI50 with TK-10, in the assay on SR, in the assay on HOP-62, in the assay on CAKI-1, with SK-MEL-5 and in the assay with HL-60 was > 100 µM (inactive) each time. Moreover, the GI50 with HCT-116 was > 100 µM (inactive).
As for `Cc1ccc(/C=C/C(=O)c2sc(-n3nc(-c4ccccc4)cc3-c3ccccc3)nc2C)cc1`, the GI50 was > 100 µM (inactive) in the assay with UO-31; > 100 µM (inactive) in the assay on OVCAR-3; > 100 µM (inactive) with SK-MEL-28; > 100 µM (inactive) in the assay on A549; 77.8 µM (inactive) in the assay on K562; 34.8 µM (inactive) with EKVX. Further, the GI50 in the assay with SK-MEL-2 was > 100 µM (inactive); in the assay on TK-10 it was > 100 µM (inactive); in the assay on HOP-62 it was > 100 µM (inactive); in the assay with CAKI-1, 12.4 µM (inactive); with SK-MEL-5, 71.1 µM (inactive); with HL-60 it was 36.4 µM (inactive).
As to `CC(=O)Nc1ccc(-c2nnc(SCC(=O)Nc3cccc(C)c3)o2)cc1`, the GI50 was 13.2 µM (inactive) in the assay with UO-31; 11.7 µM (inactive) in the assay with OVCAR-3; 13.8 µM (inactive) in the assay on SK-MEL-28; 21.3 µM (inactive) in the assay with A549; 10.8 µM (inactive) in the assay on K562; 12.5 µM (inactive) in the assay with SK-MEL-2. In addition, the GI50 in the assay on TK-10 was 15.8 µM (inactive); in the assay with SR, 4.93 µM (inactive); with HOP-62, 28.7 µM (inactive); in the assay on CAKI-1 it was 16.7 µM (inactive); in the assay on SK-MEL-5, 11.1 µM (inactive); in the assay on HL-60, 19.5 µM (inactive). In addition, the GI50 in the assay on HCT-116 was 11.8 µM (inactive).
With `CCOC(=O)NC(=O)c1cn(CCCOC(=O)CCCCCCCCC(=O)OCCCn2cc(C(=O)NC(=O)OCC)c(=O)[nH]c2=O)c(=O)[nH]c1=O`, the GI50 in the assay on OVCAR-3 is 15.8 µM (inactive); in the assay with SNB-19, 22.3 µM (inactive); in the assay on SK-MEL-28, 16.4 µM (inactive); with A549 it was 55.6 µM (inactive); with K562 it was 4.01 µM (inactive); in the assay on EKVX it was 38.1 µM (inactive). Besides, the GI50 is 22.3 µM (inactive) in the assay with TK-10; 26 µM (inactive) in the assay on HOP-62; 7.28 µM (inactive) in the assay with CAKI-1; 21.9 µM (inactive) with SK-MEL-5; 5.14 µM (inactive) in the assay on HL-60; 24.2 µM (inactive) in the assay on HCT-116.
Consider `Cc1c(C)c2ccc3oc4ccccc4c3c2oc1=O`, for which the GI50 in the assay with UO-31, in the assay on OVCAR-3, in the assay with SNB-19, in the assay with SK-MEL-28, in the assay with A549 and in the assay with K562 was > 100 µM (inactive) throughout. Further, the GI50 in the assay on EKVX, in the assay with TK-10, in the assay on SR, in the assay with HOP-62, in the assay with CAKI-1 and with SK-MEL-5 was > 100 µM (inactive) in each case. Besides, the GI50 in the assay with HL-60 was > 100 µM (inactive); in the assay on HCT-116 it was 96.4 µM (inactive).
As for `CCOP1(=O)C=C(C)C(=C(Cl)Cl)C(C)=C1` (configuration not stated), the GI50 with UO-31 was 13.9 µM (inactive); in the assay on OVCAR-3, 20.6 µM (inactive); in the assay on SNB-19 it was 20.1 µM (inactive); in the assay on SK-MEL-28, 22.5 µM (inactive); in the assay on A549 it was 8.28 µM (inactive); in the assay on K562, 3.52 µM (inactive). The GI50 was 18.9 µM (inactive) in the assay on EKVX; 3.72 µM (inactive) in the assay on SK-MEL-2; 21.3 µM (inactive) in the assay on TK-10; 15.4 µM (inactive) in the assay with HOP-62; 11.6 µM (inactive) in the assay with CAKI-1; 5.9 µM (inactive) with SK-MEL-5. Also, the figures for the GI50 in the assay with HL-60 and with HCT-116 were 3.33 µM (inactive) and 2.51 µM (inactive), respectively.
As for `COc1ccc2nc3cccc(C(=O)NCCN(C)C)c3nc2c1`, the GI50 with UO-31 is 2.45 µM (inactive); in the assay with OVCAR-3, 2.08 µM (inactive); in the assay on SNB-19, 2.84 µM (inactive); in the assay on SK-MEL-28, 2.25 µM (inactive); with A549 it was 1.8 µM (inactive); with K562, 0.794 µM (active). In addition, the GI50 was 3.06 µM (inactive) in the assay on EKVX; 1.59 µM (inactive) in the assay on SK-MEL-2; 2 µM (inactive) in the assay with TK-10; 0.264 µM (active) with SR; 1.45 µM (inactive) with HOP-62; 2.04 µM (inactive) with SK-MEL-5. In addition, the results for the GI50 with HL-60 and in the assay on HCT-116 were 1.08 µM (active) and 0.512 µM (active), respectively.
As to `N#Cc1nn(-c2ccc(Cl)cc2)c(=N)c2c(N)n3nc(-c4ccccc4)cc3nc12`, the GI50 was 0.804 µM (active) with OVCAR-3; 1 µM (active) in the assay on SNB-19; 1 µM (active) in the assay with SK-MEL-28; 1 µM (active) in the assay on A549; 1 µM (active) with K562; 1 µM (active) in the assay on EKVX. For the same molecule, the GI50 in the assay on SK-MEL-2 was 1 µM (active); in the assay on TK-10, > 100 µM (inactive); in the assay on SR it was < 0.01 µM (active); in the assay on HOP-62 it was 0.485 µM (active); in the assay with CAKI-1, 1 µM (active); in the assay on SK-MEL-5 it was 0.809 µM (active). Also, the GI50 was > 100 µM (inactive) with HL-60 and 1 µM (active) in the assay on HCT-116.
`Cc1ccc(NC(=O)c2cc3cc(/N=N/c4ccc(Br)cc4)ccc3oc2=O)cc1`: the GI50 with SNB-19 is 25.9 µM (inactive); in the assay on SK-MEL-28, > 100 µM (inactive); in the assay on A549, > 100 µM (inactive); with SK-MEL-2, > 100 µM (inactive); in the assay with TK-10, > 100 µM (inactive); in the assay with SR, 61 µM (inactive). Also, the GI50 in the assay on HOP-62 is > 10 µM (inactive); with CAKI-1, 30.5 µM (inactive); with SK-MEL-5, > 100 µM (inactive); in the assay on HL-60, 23.4 µM (inactive); in the assay on HCT-116, 46.9 µM (inactive).
For `Cc1ccc(OCC(=O)N2N=C(c3ccccc3)CC2(O)c2ccccc2)cc1` (configuration not stated), the GI50 is > 100 µM (inactive) with UO-31; 33.3 µM (inactive) in the assay with OVCAR-3; > 100 µM (inactive) in the assay with SNB-19; 80 µM (inactive) in the assay with SK-MEL-28; 20.5 µM (inactive) with A549; 20.2 µM (inactive) with K562. The GI50 was > 100 µM (inactive) with SK-MEL-2; > 100 µM (inactive) in the assay on TK-10; 9.44 µM (inactive) in the assay on SR; 27.8 µM (inactive) in the assay on HOP-62; > 100 µM (inactive) with CAKI-1; 27.8 µM (inactive) in the assay with HL-60. The GI50 with HCT-116 is > 100 µM (inactive).
In the case of `C[n+]1c2ccccc2c(/C=N\NS(=O)(=O)c2ccc(Cl)cc2)c2ccccc21`, the GI50 in the assay on UO-31 was 27.3 µM (inactive); in the assay on OVCAR-3, 41.8 µM (inactive); with SNB-19 it was 59.2 µM (inactive); in the assay on SK-MEL-28 it was 94.8 µM (inactive); with A549 it was 23 µM (inactive); in the assay with K562, 17.7 µM (inactive). In addition, the GI50 was > 100 µM (inactive) in the assay with EKVX; 46.7 µM (inactive) with SK-MEL-2; 74 µM (inactive) with TK-10; > 100 µM (inactive) in the assay with HOP-62; 29.7 µM (inactive) in the assay with CAKI-1; 42 µM (inactive) with SK-MEL-5. The GI50 in the assay on HL-60 is 30.1 µM (inactive); with HCT-116 it was 33.7 µM (inactive).
`COc1cccc(/C=C\c2cc(OC)c(OC)c(OC)c2)c1`: the GI50 in the assay with UO-31 is 4.48 µM (inactive); in the assay on OVCAR-3, 0.506 µM (active); in the assay on SNB-19 it was 2.18 µM (inactive); in the assay on SK-MEL-28, 0.507 µM (active); in the assay with A549, 0.668 µM (active); in the assay on K562, 0.373 µM (active). In addition, the GI50 in the assay with EKVX was 3.49 µM (inactive); in the assay on SR it was 0.498 µM (active); in the assay on HOP-62, 1.51 µM (inactive); in the assay on CAKI-1, 0.887 µM (active); in the assay on HCT-116, 0.548 µM (active).
As to `Nc1nc(=O)n(C2CC(O)C(O)C(CO)O2)cc1F` (configuration not stated), the GI50 in the assay on UO-31, with OVCAR-3, in the assay with SNB-19, in the assay on SK-MEL-28, in the assay with A549 and in the assay on K562 was > 100 µM (inactive) in each case. Moreover, the GI50 in the assay with EKVX, in the assay on SK-MEL-2, with TK-10, with HOP-62, with HL-60 and in the assay on HCT-116 was > 100 µM (inactive) in each case.
Turning to `N#Cc1ccccc1NC(=O)C(=O)C(C(=O)c1ccccc1-c1ccccc1)C1OC(=O)c2ccccc21` (configuration not stated), the GI50 is > 10 µM (inactive) in the assay on UO-31; 15.8 µM (inactive) in the assay on OVCAR-3; 18.2 µM (inactive) with SK-MEL-28; > 100 µM (inactive) in the assay on A549; 21.7 µM (inactive) in the assay on K562; 18.5 µM (inactive) in the assay on EKVX. Further, the GI50 in the assay with SK-MEL-2 was 16 µM (inactive); with TK-10 it was > 10 µM (inactive); in the assay with HOP-62, 11.9 µM (inactive); with SK-MEL-5 it was > 100 µM (inactive); in the assay on HL-60, 14 µM (inactive); in the assay on HCT-116, 11 µM (inactive).
